Laboratory results published in publication PMC5376326, “Inhibition of ANO1 by luteolin and its cytotoxicity in human prostate cancer PC-3 cells” (PLoS ONE, 2017).

Tests used:
ANO1 [1] = assay: Immunoblot of ANO1 protein levels in PC-3 cells; type: cell-based, human
Experimental: Immunoblotting was performed as described previously. FRT and PC-3 cells were lysed with cell lysis buffer (50 mM Tris-HCl (pH 7.4), 1% Nonidet P-40, 0.25% sodium deoxycholate, 150 mM NaCl, 1 mM EDTA, 1 mM Na3VO4, and protease inhibitor mixture). Whole cell lysates were centrifuged at 15,000 g for 10 min at 4°C to remove the cell debris, and supernatant protein was separated by 4–12% Tris-glycine precast gel (KOMA BIOTECH, Seoul, Korea) and then transferred onto PVDF membrane (Millipore, Billerica, MA). Membrane was blocked with 5% non-fat skim milk in Tris-buffered saline including 0.1% Tween 20 (TBST) for 1 hour at room temperature. The membrane was then incubated overnight with primary ANO1 antibody (1:500 dilution, ab64085; Abcam Inc., Cambridge, MA). After washing three times with TBST, the blot was further incubated for 60 min at room temperature with an anti-rabbit secondary antibody (Santa Cruz Biotechnology, CA). The membrane was then washed three times with TBST and then visualized using the ECL Plus western blotting detection system (GE Healthcare, NJ).

ANO1 [2] = target: T1, ANO1 (Homo sapiens, UniProt Q5XXA6); assay: YFP quenching assay of ANO1 activity in PC-3 cells; type: cell-based; settings: PC-3 cells expressing high levels of ANO1; indicated concentrations
T1 construct: PC-3 prostate cancer cells expressing high levels of ANO1 endogenously; endogenous in cells; host or cells: PC-3 cells (clones with high ANO1 expression; stably transfected only with the YFP halide sensor)
T1 sequence (Q5XXA6 1-986): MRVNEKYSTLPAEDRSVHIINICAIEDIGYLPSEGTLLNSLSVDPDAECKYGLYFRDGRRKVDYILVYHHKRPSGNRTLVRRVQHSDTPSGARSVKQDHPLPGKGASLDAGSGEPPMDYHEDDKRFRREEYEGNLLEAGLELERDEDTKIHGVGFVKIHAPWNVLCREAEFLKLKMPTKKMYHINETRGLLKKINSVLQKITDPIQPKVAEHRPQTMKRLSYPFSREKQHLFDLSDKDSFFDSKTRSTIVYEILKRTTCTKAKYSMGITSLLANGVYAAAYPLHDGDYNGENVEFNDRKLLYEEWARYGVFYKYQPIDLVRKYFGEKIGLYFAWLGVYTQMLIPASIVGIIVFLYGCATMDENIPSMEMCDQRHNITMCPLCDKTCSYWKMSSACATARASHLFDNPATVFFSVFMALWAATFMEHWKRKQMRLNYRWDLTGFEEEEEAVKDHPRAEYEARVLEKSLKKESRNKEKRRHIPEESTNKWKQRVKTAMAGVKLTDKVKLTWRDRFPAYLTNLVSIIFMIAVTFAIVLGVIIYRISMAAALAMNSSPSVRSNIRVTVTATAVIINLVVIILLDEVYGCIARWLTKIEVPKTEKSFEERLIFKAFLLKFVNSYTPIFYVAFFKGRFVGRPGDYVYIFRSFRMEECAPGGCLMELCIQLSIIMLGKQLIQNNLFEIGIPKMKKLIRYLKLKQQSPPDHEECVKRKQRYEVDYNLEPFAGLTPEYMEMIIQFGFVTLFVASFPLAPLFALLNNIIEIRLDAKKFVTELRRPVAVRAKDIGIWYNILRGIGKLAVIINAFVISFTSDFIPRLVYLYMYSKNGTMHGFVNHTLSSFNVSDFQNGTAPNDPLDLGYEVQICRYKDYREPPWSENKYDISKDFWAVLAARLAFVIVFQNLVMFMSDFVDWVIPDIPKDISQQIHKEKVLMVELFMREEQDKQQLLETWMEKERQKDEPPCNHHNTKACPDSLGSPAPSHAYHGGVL
Experimental: Initial iodide influx rate was determined from the initial slope of fluorescence decrease, by nonlinear regression, following infusion of iodide with ATP.

PC-3 cells = assay: Cell proliferation (MTS) assay in PC-3 cells; type: cell-based, human; settings: 24 hour; for Inhibition of cell proliferation, high versus low ANO1 expressing PC-3 cells: 3-100 μM
Experimental: PC-3 cells were seeded to a confluency of ~30% on Day 1 in 96-well plates. […] After 24 hour elapsed, the influence of luteolin and kaempferol on the cell viability was estimated by MTS assay. Briefly, the cells were reincubated with MTS for 1 hour. The soluble formazan produced by cellular reduction of MTS was quantified by measuring the absorbance at 490 nm with Infinite M200 (Tecan, Grödig, Austria) microplate reader. MTS assay was done using CellTiter 96 Aqueous One Solution Cell Proliferation Assay kit (Promega, Madison, WI).

| Structure (SMILES) | Effect on ANO1 protein levels (ANO1 [1]; PC-3 cells expressing high levels of ANO1, 24 hour, indicated concentrations) | Inhibition of ANO1 activity (ANO1 [2]) | Inhibition of cell proliferation, high versus low ANO1 expressing PC-3 cells (PC-3 cells) | Decrease of ANO1 protein levels (ANO1 [1]; 10 μM, 24 hour, PC-3 cells expressing high levels of ANO1) [%] | Decrease of ANO1 protein levels (ANO1 [1]; 30 μM, 24 hour, PC-3 cells expressing high levels of ANO1) [%] | Time-dependent change of ANO1 protein levels (ANO1 [1]; 30 μM, PC-3 cells) | Decrease of cell viability (PC-3 cells; 30 μM, PC-3 cells expressing high levels of ANO1) [%] |
| --- | --- | --- | --- | --- | --- | --- | --- |
| O=c1c(O)c(-c2ccc(O)cc2)oc2cc(O)cc(O)c12 [Kaempferol] | did not affect | significantly inhibited | did not show the significant difference | – | – | – | – |
| O=c1cc(-c2ccc(O)c(O)c2)oc2cc(O)cc(O)c12 [luteolin] | – | potently inhibited | significantly stronger in PC-3 cells with high levels of ANO1 expression | 41.2 ± 1.5 | 63.1 ± 5.7 | significantly decreased in a time-dependent manner | 52.6 ± 3.8 |
